Patent US11730714B2, “Compounds for the treatment of neuromuscular disorders” (NMD PHARMA A/S, priority 2017, dated 2023)

Columns and labels:
[1] = target: T1, CIC-1 channels (Rattus norvegicus, UniProt P35524); test: Electrophysiological measurement of compound inhibition of CIC-1 in rat muscle (Gm, EC50); type: cell-based; conditions: rat soleus muscle fibres, three micro-electrode Gm measurement; read-out: EC50 (inhibition of ClC-1 ion channel, Gm)
T1 construct: Gm was measured in individual fibres of whole rat soleus muscles; from tissue; host or cells: soleus muscle of adult (12-14 week old) Wistar rats
T1 sequence (P35524 1-994): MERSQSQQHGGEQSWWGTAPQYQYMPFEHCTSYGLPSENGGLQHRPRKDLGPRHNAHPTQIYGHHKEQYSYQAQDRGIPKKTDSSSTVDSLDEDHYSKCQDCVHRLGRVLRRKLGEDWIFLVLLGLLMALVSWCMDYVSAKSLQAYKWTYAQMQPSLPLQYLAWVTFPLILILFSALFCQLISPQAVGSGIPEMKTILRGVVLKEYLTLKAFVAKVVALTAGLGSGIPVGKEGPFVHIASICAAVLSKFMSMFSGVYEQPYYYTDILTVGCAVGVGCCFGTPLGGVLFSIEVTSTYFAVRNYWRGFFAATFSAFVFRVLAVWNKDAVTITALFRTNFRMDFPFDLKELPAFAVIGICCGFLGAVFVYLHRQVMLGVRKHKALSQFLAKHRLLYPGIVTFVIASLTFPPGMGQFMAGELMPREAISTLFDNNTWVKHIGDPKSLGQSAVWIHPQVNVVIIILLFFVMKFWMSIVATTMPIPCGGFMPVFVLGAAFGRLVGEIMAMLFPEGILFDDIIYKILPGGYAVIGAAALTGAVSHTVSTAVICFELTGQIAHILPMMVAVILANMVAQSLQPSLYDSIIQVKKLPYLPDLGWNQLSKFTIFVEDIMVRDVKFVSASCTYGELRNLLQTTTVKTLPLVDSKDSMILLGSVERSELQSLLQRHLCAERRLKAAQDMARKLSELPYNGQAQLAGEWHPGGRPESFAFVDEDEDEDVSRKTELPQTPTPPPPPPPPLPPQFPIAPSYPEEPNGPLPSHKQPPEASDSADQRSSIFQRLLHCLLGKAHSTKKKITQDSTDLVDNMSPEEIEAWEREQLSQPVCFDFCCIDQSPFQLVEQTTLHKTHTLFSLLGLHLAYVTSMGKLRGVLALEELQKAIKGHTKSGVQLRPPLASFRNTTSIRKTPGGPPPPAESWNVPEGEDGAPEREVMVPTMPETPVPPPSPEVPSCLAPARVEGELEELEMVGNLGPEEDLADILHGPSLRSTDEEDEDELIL

[2] = system: isolated rat soleus muscles; test: Recovery of nerve-stimulated force in isolated rat soleus muscles with ACh receptors inhibited by 2 μM rocuronium; type: cell-based; conditions: 50 μM C8 added after 2 μM rocuronium had reduced force to 51±5%; 8 muscles; p<0.01
Protocol: In a separate series of experiments with 8 isolated rat soleus muscles, ACh receptors were inhibited using 2 μM rocuronium, which is a clinically used neuromuscular blocking agent. Under these conditions the nerve-stimulated force was reduced to 51±5% of force before rocuronium. […] This illustrates the potential of these compounds to be used as reversal agents.

[3] = system: isolated human muscles; type: cell-based; conditions: 150 μM C8; elevated extracellular K+ and low dose TTX
[4] = system: rats injected with tubocurarine; test: Rotarod running performance of rats after I.P. tubocurarine (myasthenia-like phenotype); type: in vivo, rat; conditions: C8 20 mg/kg I.P. 2 hrs before tubocurarine 0.13 mg/kg I.P.; tested 21 min after tubocurarine; sham around 2%
Protocol: FIGS. 9A-9B. […] FIG. 9A illustrates the design of the experiments. Prior to Day One the animals had been familiarized to the rotarod in three training sessions distributed over two days.
(§1) In both series of experiments, running performance was tested on a rotarod using a protocol where the rod was accelerated gradually over a 5 min period, and the running time and covered distance before falling off the rod were measured. […] Experiments with tubocurarine were carried out over two days, and on each day the effect of tubocurarine on running performance was tested. On the first day only tubocurarine was injected. […] On the second day, the animals were first allowed to run on the rotarod, and all animals performed normally. […] The allocation of the animals into the two groups (C8 or sham) was random and unknown to the experimenter (blinded experimental design).
In the first series of in vivo experiments, myasthenia gravis was simply mimicked by I.P. injection of tubocurarine (0.13 mg/kg) in animals that had been familiarized to running on the rotarod. On the first of two consecutive days, tubocurarine was injected I.P. and the running performance of the animal was tested 21 minutes after this injection. On the second day of experimentation, the animals first performed a test run to ensure that they were no longer affected by the tubocurarine injected the day before. […]

[5] = system: isolated rat soleus muscles; test: Recovery of nerve-stimulated force in isolated rat soleus muscles exposed to 3.5 mM Mg2+; type: cell-based; conditions: 3.5 mM Mg2+, after 70 min at elevated Mg2+
Protocol: Experiments were performed using rat soleus muscles from either young (4-wk-old) or adult Wistar rats (12-14-week-old). Animal handling, killing and isolation of muscle is described elsewhere All experiments were performed using normal Krebs-Ringer bicarbonate solution (NKR). In solutions with elevated Mg^2+, MgCl2 was added to NKR-solution causing minor increases in osmolarity and ionic strength. In solutions with elevated K^+, 4 mM NaCl was replaced by 4 mM KCl in the NKR.
The aim was to find compounds that by inhibition of CIC-1 channels can recover nerve-stimulated force under conditions of fatigue including conditions where fatigue is caused by compromised neuromuscular transmission. Neuromuscular transmission dysfunction can develop because of both pre- and/or post-synaptic complications in connection with a disorder or as part of neuromuscular blockade during/after surgery. In the initial series of drug testing, experiments were performed with isolated muscles in the presence of sub-maximal ACh receptor antagonist tubocurarine. […] To mimic conditions with pre-synaptic complication (Lambert Eaton syndrome, motor neuron disorder, polyneuropathy) the intact nerve-muscle preparations were incubated at elevated extracellular Mg^2+, which is known to suppress release of ACh from nerve terminals of motor neurons.

[6] = system: rats injected with MAB35; test: Rotarod running performance in passive myasthenia gravis induced in rats with MAB35 antibody; type: in vivo, rat; conditions: after stable reduction in performance by MAB35, vs sham
Protocol: FIG. 10. […] Prior to I.P. injection of MAB35 the animals had been familiarized to the rotarod over three training sessions distributed over two days. […] After this treatment performance was monitored every second hour. *Indicates significant different as evaluated using student t-test.
as §1
In experiments with MAB35, animals were first familiarized with the rotarod over two consecutive days and then injected I.P. with MAB35. After injection, rotarod performance was then again monitored regularly over the consecutive two days. […] A considerable number of animals, however, became moribund failing to walk and they had altered ventilation (rapid) and pronounced ptosis. These animals were not included in experiments. […]

Compound: (2S)-2-(4-bromophenoxy)(2-^2H)butanoic acid [Compound A-60]
- EC50 [1]: 7.5 ± 1 µM

Compound: C[C@H](Oc1ccc(Br)cc1)C(=O)O [Compound C8, (2S)-2-(4-bromophenoxy)propanoic acid]
- nerve-stimulated contractile force recovered to % of force before rocuronium [2]: 81±4%
- contractile force [3]: markedly recovery
- increase in running performance on the second day vs the first day (rotarod) [4]: around 150%
- 50 μM % change after addition (AUC of nerve-stimulated force) ([5]; 50 μM compound): 13 ± 4%
- 100 μM % change after addition (AUC of nerve-stimulated force) ([5]; 100 μM compound): 26 ± 5%
- rotarod performance after injection ([6]; C8 20 mg/kg): decline was reduced
- rotarod performance after injection ([6]; C8 30 mg/kg): clear recovery of performance
